# Experimental data reported in article PMC11901902, “Design, Synthesis, and Cytotoxicity Evaluation of Novel Indolin-2-One Based Molecules on Hepatocellular Carcinoma HepG2 Cells as Protein Kinase Inhibitors” (Molecules, 2025).
# Like-named read-outs stand apart in the source and are kept apart here.
# Columns and labels:
# [1] = test system: MCF-7 cells; test: MTT cytotoxicity assay on MCF-7 cells; type: cell-based; settings: Homo sapiens, MCF7; for viability at 1.25 µM: MCF-7, 1.25 µM; for viability at 2.5 µM: MCF-7, 2.5 µM; for viability at 5 µM: MCF-7, 5 µM; for viability at 10 µM: MCF-7, 10 µM; for viability at 20 µM: MCF-7, 20 µM; for viability at 40 µM: MCF-7, 40 µM; for viability at 80 µM: MCF-7, 80 µM; for viability at 160 µM: MCF-7, 160 µM
# Protocol: (§1) Cytotoxic activity of the synthesized compounds was evaluated against HepG-2 and MCF-7 cancer cell lines using the MTT assay. The tested cell lines were obtained from the American Type Culture Collection (ATCC, […], USA) through the Tissue Culture Unit, The Egyptian Organization for Biological Products and Vaccines (Vacsera, Giza, Egypt). Indirubin, chemicals, and solvents were purchased from Sigma-Aldrich (St. Louis, MO, USA). The cells were grown on RPMI-1640 medium supplemented with 10% inactivated fetal calf serum and 50 µg/mL gentamycin. The cells were maintained at 37 °C in a humidified atmosphere with 5% CO2 and were sub-cultured two to three times per week. For antitumor assays, the tumor cell lines were suspended in the medium at concentration 5 × 10^4 cell/well in Corning® 96-well tissue culture plates (Corning, Corning, NY, USA), then incubated for 24 h. The tested molecules were then added to 96-well plates (six replicates) to achieve six concentrations for each compound. Six vehicle controls with media or 0.5% DMSO were run for each 96-well plate as a control. After incubating for 24 h, the numbers of viable cells were determined by the MTT test. Briefly, the media was removed from the 96 well plate and replaced with 100 µL of fresh culture RPMI 1640 medium without phenol red then 10 µL of the 12 mM MTT stock solution (5 mg of MTT in 1 mL of PBS) to each well including the untreated controls. The 96-well plates were then incubated at 37 °C and 5% CO2 for 4 h. An 85 µL aliquot of the media was removed from the wells, and 50 µL of DMSO was added to each well, mixed thoroughly with the pipette, and incubated at 37 °C for 10 min. Then, the optical density was measured at 590 nm with the microplate reader (SunRise, TECAN, Inc., Morrisville, NC, USA) to determine the number of viable cells, and the percentage of viability was calculated as […], where ODt is the mean optical density of wells treated with the tested sample and ODc is the mean optical density of untreated cells. The relation between surviving cells and drug concentration was plotted to obtain the survival curve of each tumor cell line after treatment with the specified compound. […] Each concentration was repeated four times.
# [2] = test system: HepG-2 cells; test: MTT cytotoxicity assay on HepG-2 cells; type: cell-based, human; settings: Homo sapiens, HepG2; for viability at 1.25 µM: HepG-2, 1.25 µM; for viability at 1.25 µM / viability at 2.5 µM / viability at 5 µM / viability at 10 µM / viability at 20 µM / viability at 40 µM / viability at 80 µM / viability at 160 µM: Table S1; for viability at 2.5 µM: HepG-2, 2.5 µM; for viability at 5 µM: HepG-2, 5 µM; for viability at 10 µM: HepG-2, 10 µM; for viability at 20 µM: HepG-2, 20 µM; for viability at 40 µM: HepG-2, 40 µM; for viability at 80 µM: HepG-2, 80 µM; for viability at 160 µM: HepG-2, 160 µM; for IC50: MTT, 24 h treatment, mean of three experiments ± SEM
# Protocol: as §1
# [3] = MTT, 24 h treatment, mean of three experiments ± SEM, read-out: IC50 (µM) MCF-7
# [4] = Table S2, read-out: IC50 (µM) on MCF-7 cell line
Compound,viability at 1.25 µM ([1]; Table S2),viability at 2.5 µM ([1]; Table S2),viability at 5 µM ([1]; Table S2),viability at 10 µM ([1]; Table S2),viability at 20 µM ([1]; Table S2),viability at 40 µM ([1]; Table S2),viability at 80 µM ([1]; Table S2),viability at 160 µM ([1]; Table S2),"IC50 [1, 3]",viability at 1.25 µM [2],viability at 2.5 µM [2],viability at 5 µM [2],viability at 10 µM [2],viability at 20 µM [2],viability at 40 µM [2],viability at 80 µM [2],viability at 160 µM [2],IC50 [2],"IC50 [1, 4]"
"O=C1Nc2ccccc2C1=Nc1ccc2nc[nH]c(=O)c2c1 [Compound 7, 6-(2-Oxo-1,2-dihydro-indol-3-ylideneamino)-3H-quinazolin-4-one]",101 ± 7.2%,93.7 ± 8.2%,87.6 ± 6.1%,78.2 ± 5.3%,66.3 ± 4%,53.1 ± 2%,45.2 ± 1.4%,36.8 ± 1.2%,21.9 ± 1.83 µM,83.4 ± 6.9%,70.9 ± 6%,61.9 ± 5.1%,49.3 ± 2.2%,35.9 ± 2.1%,26.5 ± 1.9%,9.4 ± 0.4%,7.2 ± 0.2%,10.8 ± 0.92 µM,–
"O=C1Nc2ccc(F)cc2/C1=N/c1ccc2nc[nH]c(=O)c2c1 [Compound 8, 6-(5-Flouro-2-oxo-1,2-dihydro-indol-3-ylideneamino)-3H-quinazolin-4-one]",104 ± 4.9%,94.2 ± 4%,87.9 ± 3.9%,75.7 ± 3.2%,57.1 ± 2.4%,43.9 ± 2%,29.7 ± 1.4%,11.5 ± 0.7%,52.8 ± 3.21 µM,88 ± 7.6%,71.2 ± 6.1%,62.3 ± 4.3%,48.2 ± 1.8%,33.6 ± 0.13%,17.5%,15.1 ± 1.4%,9.3 ± 1.1%,7.54 ± 0.53 µM,–
"O=C1Nc2ccc(Br)cc2C1=Nc1ccc2nc[nH]c(=O)c2c1 [Compound 10, 6-(5-Bromo-2-oxo-1,2-dihydro-indol-3-ylideneamino)-3H-quinazolin-4-one]",98.3 ± 7.4%,99.1 ± 6.9%,87.2 ± 5.7%,76.5 ± 4%,65.2 ± 2.8%,55.4 ± 2.6%,41.2 ± 2.8%,25.4 ± 2.6%,> 100 µM,91.2 ± 7%,87.9 ± 8.1%,83 ± 5.2%,71.4 ± 4.5%,58.7 ± 4.3%,35.8 ± 2.1%,19.4 ± 1.2%,14.2 ± 0.9%,28.1 ± 2.08 µM,112 ± 11.2 µM
"O=C1Nc2ccc([N+](=O)[O-])cc2C1=Nc1ccc2nc[nH]c(=O)c2c1 [Compound 11, 6-(5-Nitro-2-oxo-1,2-dihydro-indol-3-ylideneamino)-3H-quinazolin-4-one]",116 ± 6.4%,97.5 ± 7%,90.1 ± 6.4%,86 ± 5.5%,63.9 ± 3.8%,39.1 ± 2.9%,25.6 ± 1.3%,11.2 ± 0.4%,72.4 ± 6.51 µM,99.2 ± 6.9%,91.3 ± 7.9%,89.4 ± 6.4%,79.5 ± 5.5%,67.1 ± 3.8%,54.6 ± 1.9%,44.1 ± 1.3%,37.6 ± 1.1%,20.9 ± 1.54 µM,–
"Cc1ccc2c(c1)C(=Nc1ccc3nc[nH]c(=O)c3c1)C(=O)N2 [Compound 12, 6-(5-Methyl-2-oxo-1,2-dihydro-indol-3-ylideneamino)-3H-quinazolin-4-one]",104 ± 5.4%,91.4 ± 4.1%,80 ± 4.2%,69.2 ± 2.7%,58.5 ± 1.5%,30.1 ± 1.2%,21.5 ± 1.5%,9.15 ± 1.2%,46.2 ± 2.47 µM,96.4 ± 6.9%,84.9 ± 6.1%,81.8 ± 5.4%,69.1 ± 4.1%,58.9 ± 2.2%,49.7 ± 1.7%,36.3 ± 0.5%,33.9 ± 1.2%,31.9 ± 2.12 µM,–
"COc1ccc2c(c1)C(=Nc1ccc3nc[nH]c(=O)c3c1)C(=O)N2 [Compound 13, 6-(5-Methoxy-2-oxo-1,2-dihydro-indol-3-ylideneamino)-3H-quinazolin-4-one]",109 ± 7.3%,108 ± 7.4%,99.6 ± 6.5%,87.6 ± 4.6%,71.9 ± 3.2%,67.6 ± 2.7%,60.8 ± 1.5%,56.8 ± 0.9%,> 100 µM,88.2 ± 7.4%,86.5%,75.9 ± 4.6%,61.5 ± 3.2%,40.9 ± 2.7%,26.6 ± 1.5%,7.9 ± 0.9%,3.9 ± 0.3%,18.9 ± 1.05 µM,123 ± 13.2 µM
"O=C1Nc2ccccc2C1=Nc1ccc(-c2nc3ccccc3c(=O)[nH]2)cc1 [Compound 18, 2-[4-(2-Oxo-1,2-dihydro-indol-3-ylideneamino)-phenyl]-3H-quinazolin-4-one]",109 ± 6.2%,92 ± 6.8%,94.2 ± 5.8%,80.8 ± 4.9%,84.8 ± 2.9%,83.8 ± 2.8%,74.3 ± 1.2%,67.9 ± 0.8%,> 100 µM,78 ± 7.2%,75.6 ± 6.8%,73.5 ± 5.8%,55.9 ± 4.1%,40.4 ± 2.9%,24.9 ± 2.8%,4.54 ± 0.23%,1.95 ± 0.19%,82.4 ± 7.17 µM,143 ± 16.2 µM
"O=C1Nc2ccc(F)cc2/C1=N/c1ccc(-c2nc3ccccc3c(=O)[nH]2)cc1 [Compound 19, 2-[4-(5-Flouro-2-oxo-1,2-dihydro-indol-3-ylideneamino)-phenyl]-3H-quinazolin-4-one]",109 ± 6.6%,99.3 ± 5.3%,93.9 ± 4.9%,81.2 ± 3.9%,59 ± 2.4%,36.4 ± 1.7%,16.4 ± 1.8%,12 ± 1.2%,40.8 ± 3.24 µM,68.4 ± 6.6%,75 ± 5.3%,72.3 ± 5.9%,58.4 ± 3.5%,46.3 ± 2.4%,26.6 ± 1.7%,13.6 ± 0.8%,7.47 ± 0.2%,28.4 ± 1.26 µM,–
"O=C1Nc2ccc(Br)cc2C1=Nc1ccc(-c2nc3ccccc3c(=O)[nH]2)cc1 [Compound 21, 2-[4-(5-Bromo-2-oxo-1,2-dihydro-indol-3-ylideneamino)-phenyl]-3H-quinazolin-4-one]",103 ± 7.7%,99.6 ± 6.8%,91.6 ± 5.5%,78.2 ± 4.6%,66.3 ± 3.4%,33.2 ± 2.5%,16 ± 1.1%,10.3 ± 0.9%,33.6 ± 2.33 µM,98.3 ± 7.7%,82.5 ± 6.8%,77.8 ± 5.5%,61.4 ± 4.6%,47 ± 3.4%,23 ± 1.5%,9.33 ± 1.1%,6.14 ± 0.9%,23.7 ± 0.74 µM,–
"O=C1Nc2ccc([N+](=O)[O-])cc2C1=Nc1ccc(-c2nc3ccccc3c(=O)[nH]2)cc1 [Compound 22, 2-[4-(5-Nitro-2-oxo-1,2-dihydro-indol-3-ylideneamino)-phenyl]-3H-quinazolin-4-one]",109 ± 8%,99.6 ± 7.4%,95.3 ± 5.9%,79.1 ± 5.1%,63.6 ± 3.8%,49.9 ± 3.3%,23.5 ± 2.5%,12.9 ± 1.3%,14.9 ± 0.66 µM,79.2 ± 7.2%,73.3 ± 6.5%,63 ± 5.9%,48.5 ± 4.1%,38 ± 3.8%,26.1 ± 2.3%,8.22 ± 0.5%,4.17 ± 0.2%,35.8 ± 2 µM,–
